The target in this assay is T1, Protein mono-ADP-ribosyltransferase TIPARP (Homo sapiens, UniProt Q7Z3E1).
T1 sequence (Q7Z3E1 whole entry): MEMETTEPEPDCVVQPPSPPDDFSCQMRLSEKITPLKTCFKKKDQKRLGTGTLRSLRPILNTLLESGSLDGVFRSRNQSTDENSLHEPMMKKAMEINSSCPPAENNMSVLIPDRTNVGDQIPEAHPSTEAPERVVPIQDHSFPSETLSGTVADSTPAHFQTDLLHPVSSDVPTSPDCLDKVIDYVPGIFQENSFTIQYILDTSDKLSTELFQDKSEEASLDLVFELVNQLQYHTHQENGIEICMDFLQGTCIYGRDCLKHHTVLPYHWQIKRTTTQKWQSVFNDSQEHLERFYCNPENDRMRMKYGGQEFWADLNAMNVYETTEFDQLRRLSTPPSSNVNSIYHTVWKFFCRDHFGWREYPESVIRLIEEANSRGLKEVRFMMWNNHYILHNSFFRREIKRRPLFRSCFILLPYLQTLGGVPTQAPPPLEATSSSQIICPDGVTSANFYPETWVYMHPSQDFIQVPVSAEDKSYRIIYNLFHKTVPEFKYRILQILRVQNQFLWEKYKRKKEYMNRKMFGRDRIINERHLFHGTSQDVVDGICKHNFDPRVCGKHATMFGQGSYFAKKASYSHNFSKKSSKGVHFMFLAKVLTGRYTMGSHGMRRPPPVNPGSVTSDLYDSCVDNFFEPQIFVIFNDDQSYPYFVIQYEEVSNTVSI
The experiment in a line: Enzymatic Assay. The method, then:
Displacement of Probe A, a biotinylated probe binding to the TIPARP active site, was measured using a time-resolved fluorescence energy transfer (TR-FRET) assay. 20 nL of a dose response curve of each test compound was spotted in black 384-well polystyrene proxiplates (Perkin Elmer) using a Mosquito (TTP Labtech). Reactions were performed in a 8 μL volume by adding […] of TIPARP and Probe A in assay buffer (20 mM HEPES pH=8, 100 mM NaCl, 0.1% bovine serum albumin, 2 mM DTT and 0.002% Tween20), incubating with test compound at 25° C. for 30 min, then adding 2 μL of ULight-anti 6×His and LANCE Eu-W1024 labeled streptavidin (Perkin Elmer). The final concentrations of TIPARP and Probe A were 6 nM and 2 nM, respectively.

Drawing on BindingDB's records for patent US10870641 (Ribon Therapeutics, 2020), this text covers IC50 for three molecules.

Turning to `N#Cc1cnc(N2CCN(C(=O)c3cc(OC[C@@H]4c5ccccc5CN4c4cn[nH]c(=O)c4C(F)(F)F)ccn3)CC2)nc1` [US10870641, Example 64B], the IC50 was greater than 1000 nM.

As to `C[C@@H](CC(=O)N1CCN(c2ccc(C#N)cn2)CC1)OCCOc1cn[nH]c(=O)c1C(F)(F)F` [US10870641, Example 538A], the IC50 result was “in the range around 550 nM”.

Molecule `N#Cc1ccc(N2CCN(C(=O)/C=C/COC[C@H]3CCCN3c3cn[nH]c(=O)c3C(F)(F)F)CC2)nc1` [US10870641, Example 96B] yielded a half-inhibitory concentration (IC50) of less than 100 nM.
